Measurements as given in patent US20020103228A1, “Composition and method for use of pyridinium derivatives in cosmetic and therapeutic applications” (TORRENT PHARMACEUTICALS LTD., priority 1999, published 2002).
Where two headings read alike, the source gives them in different places.

Tests used:
diabetic rats [1] = conditions: cited from earlier work
[2] = test system: rat model of diabetic retinopathy; conditions: cited from earlier work
old rats = conditions: Li et al (1996); cited from earlier work
diabetic rats [3] = conditions: cited from earlier work; remark: listed apart in the source
[4] = Free radical scavenging activity on ABTS radical cation; type: biochemical
Outline: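 ABTS radical cation generated with horseradish peroxidase and 1.08 mM H2O2 stock in PBS, preincubated 30 min at 30 °C. Serial dilutions were added, and absorbance at 730 nm was read immediately against PBS blank. % activity = (OD test/OD control ×100) − 100.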

AGE-BSA = molecular target: T1, AGE-BSA (Bos taurus, UniProt P02769); assay: In-vitro AGE breaking activity by ELISA; type: biochemical, Bovine; conditions: 37° C., 24 hours
T1 construct: Bovine serum albumin (fraction V) (BSA); from tissue; host or cells: bovine serum (fraction V); glycated in house with 1.6 M glucose at 37 °C for 16 weeks
T1 sequence (P02769 25-607): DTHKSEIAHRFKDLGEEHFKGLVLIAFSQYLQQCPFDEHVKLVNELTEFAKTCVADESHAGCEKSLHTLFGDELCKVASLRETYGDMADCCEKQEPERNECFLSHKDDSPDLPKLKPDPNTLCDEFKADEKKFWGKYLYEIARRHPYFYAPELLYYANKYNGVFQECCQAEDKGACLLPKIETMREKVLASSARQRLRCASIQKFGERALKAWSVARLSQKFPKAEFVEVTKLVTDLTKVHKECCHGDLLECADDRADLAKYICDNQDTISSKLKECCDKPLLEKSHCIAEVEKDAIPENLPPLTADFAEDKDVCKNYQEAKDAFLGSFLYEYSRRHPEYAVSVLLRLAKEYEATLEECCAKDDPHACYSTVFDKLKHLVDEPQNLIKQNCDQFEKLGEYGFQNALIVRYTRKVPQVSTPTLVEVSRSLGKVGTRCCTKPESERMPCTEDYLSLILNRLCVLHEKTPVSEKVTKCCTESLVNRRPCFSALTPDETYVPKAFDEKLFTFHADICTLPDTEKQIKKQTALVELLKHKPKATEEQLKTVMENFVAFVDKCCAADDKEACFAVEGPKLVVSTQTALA
Outline: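 BSA glycated with 1.6 M glucose in PBS at 37° C for 16 weeks, then dialyzed; 10 μg/ml AGE-BSA incubated with test compounds 24 h at 37° C. Remaining AGE-BSA coated at 5–20 ng/well and quantified by ELISA (anti-AGE-BSA primary, HRP anti-rabbit, OPD, OD 450–620 nm); % breaking calculated versus untreated 20 ng AGE-BSA.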

[5] = test system: Rat-Tail Tendon collagen of diabetic male wister rats; conditions: 8 weeks of treatment
Procedure: To evaluate AGE breaker efficacy of compounds of formula (I) the process of aging was mimicked by induction of diabetes in male wister rats. Diabetes was induced in male wister rats (by repeated STZ injections) to mimic the process of aging and formation of AGE. Diabetic male wister rats were treated with compounds of formula (I) for a period of 8 weeks after induction of diabetes and collagen solubility was measured in Rat-Tail Tendon. Rat Tail Tendon were selected because of their similarity with skin collagen (i.e. Type I collagen). After 8 weeks of treatment the “control” and “treated” groups of animals were sacrificed and tail tendons were homogenized, digested with hydrochloric acid and the supernatant of both the groups of animals was assayed for hydroxyprolin for acid soluble collagen contents as per method of Stegemann and Stalder (clinica Chimica Acta, 18 (1967) 267-273).
Diabetes and aging are degenerative process where normal proteins like collagen become cross-linked. The cross linking of skin collagen can lead to complications like Aging. To test the ability of compounds of invention to break pre-formed AGE, diabetic animals were treated for 8 weeks with the compounds. After the treatment the collagen solubility was estimated to determine their AGE breaking activity.

arterial stiffness = conditions: diabetes induced (Wolffenbutel 1998); cited from earlier work

N=C(N)NN [Aminoguanidine]
development of diabetic nephropathy (diabetic rats [1]; Yamauchi (1997)): inhibits development of diabetic nephropathy
thickening of glomerular basement membrane (diabetic rats [1]; diabetic rats (Ellis 1991)): ameliorate thickening of glomerular basement membrane
rise in albuminuria (diabetic rats [1]; experimental diabetic rats (Soulis-Liparota, 1991)): attenuate the rise in albuminuria
progression of diabetic retinopathy [2]: retard progression of diabetic retinopathy
tissue damage in aging (old rats): significantly prevent tissue damage
nerve conduction velocity (diabetic rats [3]): improve nerve conduction velocity

COCCNC(=O)c1ccc[n+](CC(=O)c2ccc(Cl)cc2Cl)c1.[Br-] [Compound 38, 1-(2′,4′-dichlorophenyl-2-oxoethyl)-3-(2-methoxyethylaminocarbonyl)-pyridinium bromide]
Relative Free Radical Scavenging Activity (%) on ABTS ([4]; 11.5 μM): 47.2%
Relative Free Radical Scavenging Activity (%) on ABTS ([4]; 23.0 μM): 54.8%
Relative Free Radical Scavenging Activity (%) on ABTS ([4]; 46.0 μM): 71.0%
Relative Free Radical Scavenging Activity (%) on ABTS ([4]; 92.5 μM): 89.5%
Relative Free Radical Scavenging Activity (%) on ABTS ([4]; 925 μM): 100%
% Breakage (AGE-BSA; 5 mM test compound): 17.66%

O=C(C[n+]1cccc(C(=O)NNC(=O)c2ccc[n+](CC(=O)NC3CC3)c2)c1)NC1CC1.[Cl-].[Cl-] [Compound 39, N,N′-bis-[3-carbonyl-1-(2-cyclopropylamino-2-oxoethyl)pyridinium]hydrazine dichloride]
Relative Free Radical Scavenging Activity (%) on ABTS ([4]; 11.5 μM): 43.0%
Relative Free Radical Scavenging Activity (%) on ABTS ([4]; 23.0 μM): 62.8%
Relative Free Radical Scavenging Activity (%) on ABTS ([4]; 46.0 μM): 95.6%
Relative Free Radical Scavenging Activity (%) on ABTS ([4]; 92.5 μM): 98%
% Improvement in collagen solubility with respect to untreated control subject. ([5]; 6.0 mg/kg): 28.00%
% Breakage (AGE-BSA; 5 mM test compound): 22.8%

Cc1sc[n+](CC(=O)c2ccccc2)c1C.[Cl-] [ALT-711]
arterial stiffness and arterial compliance (arterial stiffness): reverse diabetes induced increase of arterial stiffness and improve arterial compliance

O=C(NCCO)c1ccc[n+](CC(=O)c2cccs2)c1.[Br-] [Compound 90, 1-(2-Thien-2′-yl-2-oxoethyl)-3-((2-hydroxyethyl)aminocarbonyl)pyridinium bromide]
Relative Free Radical Scavenging Activity (%) on ABTS ([4]; 11.5 μM): 47.8%
Relative Free Radical Scavenging Activity (%) on ABTS ([4]; 23.0 μM): 58.8%
Relative Free Radical Scavenging Activity (%) on ABTS ([4]; 46.0 μM): 78.2%
Relative Free Radical Scavenging Activity (%) on ABTS ([4]; 92.5 μM): 99.5%
Relative Free Radical Scavenging Activity (%) on ABTS ([4]; 925 μM): 100%
% Breakage (AGE-BSA; 10 mM test compound): 50%

O=C(NNC(=O)c1ccc[n+](CC(=O)c2cccs2)c1)c1ccc[n+](CC(=O)c2cccs2)c1.[Br-].[Br-] [Compound 6, N,N′-bis[3-carbonyl-1-(2-thien-2′-yl-2-oxoethyl)pyridinium]hydrazine dibromide]
% Improvement in collagen solubility with respect to untreated control subject. ([5]; 7.5 mg/kg): 56.70%
% Breakage (AGE-BSA; 5 mM test compound): 53%

O=C(NNC(=O)c1ccc[n+](CC(=O)c2cccs2)c1)c1ccc[n+](CC(=O)c2cccs2)c1.[Cl-].[Cl-] [Compound 33, N,N′-bis[3-carbonyl-1-(2-thien-2′-yl-2-oxoethyl)pyridinium]hydrazine dichloride]
Relative Free Radical Scavenging Activity (%) on ABTS ([4]; 11.5 μM): 58.4%
Relative Free Radical Scavenging Activity (%) on ABTS ([4]; 23.0 μM): 72.8%
Relative Free Radical Scavenging Activity (%) on ABTS ([4]; 46.0 μM): 98.5%
Relative Free Radical Scavenging Activity (%) on ABTS ([4]; 92.5 μM): 100%
% Improvement in collagen solubility with respect to untreated control subject. ([5]; 15.0 mg/kg): 80.45%
% Breakage (AGE-BSA; 5 mM test compound): 20%

CS(=O)(=O)NNC(=O)c1ccc[n+](CC(=O)c2cccs2)c1.[Cl-] [Compound 45, 1-(2-thien-2′-yl-2-oxoethyl)-3-(methanesulfonyl hydrazinocarbonyl)pyridinium chloride]
Relative Free Radical Scavenging Activity (%) on ABTS ([4]; 11.5 μM): 53.9%
Relative Free Radical Scavenging Activity (%) on ABTS ([4]; 23.0 μM): 56.2%
Relative Free Radical Scavenging Activity (%) on ABTS ([4]; 46.0 μM): 78.7%
Relative Free Radical Scavenging Activity (%) on ABTS ([4]; 92.5 μM): 99.8%
Relative Free Radical Scavenging Activity (%) on ABTS ([4]; 925 μM): 100%
% Breakage (AGE-BSA; 10 mM test compound): 17.53%

CS(=O)(=O)NNC(=O)c1ccc[n+](CC(=O)c2cccs2)c1.[Br-] [Compound 5, 1-(2-thien-2′-yl-2-oxoethyl)-3-(methanesulfonylhydrazinocarbonyl)pyridinium bromide]
Relative Free Radical Scavenging Activity (%) on ABTS ([4]; 11.5 μM): 47.2%
Relative Free Radical Scavenging Activity (%) on ABTS ([4]; 23.0 μM): 65.6%
Relative Free Radical Scavenging Activity (%) on ABTS ([4]; 46.0 μM): 83.7%
Relative Free Radical Scavenging Activity (%) on ABTS ([4]; 92.5 μM): 100%
% Improvement in collagen solubility with respect to untreated control subject. ([5]; 10.0 mg/kg): 88.80%
% Breakage (AGE-BSA; 10 mM test compound): 16%
% Breakage (AGE-BSA; 50 mM test compound): 68%

CS(=O)(=O)NNC(=O)c1ccc[n+](CC(=O)c2ccc([N+](=O)[O-])s2)c1.[Cl-] [Compound 67]
Relative Free Radical Scavenging Activity (%) on ABTS ([4]; 11.5 μM): 13.11%
Relative Free Radical Scavenging Activity (%) on ABTS ([4]; 23.0 μM): 50.70%
Relative Free Radical Scavenging Activity (%) on ABTS ([4]; 46.0 μM): 97.46%
Relative Free Radical Scavenging Activity (%) on ABTS ([4]; 92.5 μM): 99.43%
% Breakage (AGE-BSA; 1 mM test compound): 42.01%

NC(=O)c1cc(C(=O)NNC(=O)c2ccc[n+](CC(=O)c3cccs3)c2)c[n+](CC(=O)c2cccs2)c1.[Cl-].[Cl-] [Compound 60, 1-[1-(2-thien-2′-yl-2-oxoethyl)-5-aminocarbonyl-3-carbonylpyridinium]-2-[1-(2-Thien-2′-yl-2-oxoethyl)-3-carbonylpyridinium]hydrazine dichloride]
Relative Free Radical Scavenging Activity (%) on ABTS ([4]; 11.5 μM): 44.1%
Relative Free Radical Scavenging Activity (%) on ABTS ([4]; 23.0 μM): 59.8%
Relative Free Radical Scavenging Activity (%) on ABTS ([4]; 46.0 μM): 69.4%
Relative Free Radical Scavenging Activity (%) on ABTS ([4]; 92.5 μM): 99.9%
Relative Free Radical Scavenging Activity (%) on ABTS ([4]; 925 μM): 100%
% Breakage (AGE-BSA; 1 mM test compound): 95.36%
